Assay results taken from US4833156A, “Treating amnesia with a pyrrolidone derivative” (Kirin Beer Kabushiki Kaisha, priority 1987, dated 1989).

Legend:
[1] = test system: scopolamine induced amnesia in rats; assay: Rat delayed-matching test (scopolamine-induced amnesia); assay type: in vivo, rat (SD, male, 150 to 300 g); settings: for remission of scopolamine induced amnesia: oral, 20 min before test, (-)-scopolamine hydrochloride 0.06 mg/kg s.c., delay times 0.1, 4, 16, 32 s, FIG. 3 and FIG. 4
From the text: An apparatus equipped with two lever switches on the respective sides of the front face of the inside of an operant experimental box (25×31×33 cm), red lamps just above respective levers and a white lamp at a further upper position was used for the experiment. A rat bred under restricted feeding (SD, male, 150 to 300 g) was placed in the apparatus. Either one of the red lamps arranged on the right and left sides was lit for 5 seconds, and, at a specific time (delayed time) after it was turned off, the white lamp at the center was lit. The system of the apparatus was so set that if the lever which was at the side of the red lamp having lit was pushed, a feed pellet (ca. 50 mg) was given as a correct choice, and if another lever was pushed no pellet was given as an incorrect choice. After the training had been conducted to ensure that, in the test of delay time being 0.1 sec, the correct choice rate was maintained at the level of 80% or more for three consecutive days, the test was conducted. In the test, delay times were set at 0.1, 4, 16 and 32 seconds, and, at each of the delay times, 6 runs were conducted at random (24 runs in total, 1 run/minute). […] N-(4'-chlorobenzenesulfonyl)-2-pyrrolidone and aniracetam were administered orally in the form of suspensions in 0.3% Tween 80 at 20 minutes before test.

[2] = test system: proline specific endopeptidase; assay: Inhibition of proline specific endopeptidase activity (residual peptidase activity); assay type: biochemical; settings: inhibitor concentration not given
Method: The inhibitory effects of the compounds represented by the formula (I) were determined by measuring the residual peptidase activity. The experimental procedure was agreed with the method by Tadashi Yoshimoto and Daisuke Tsuru: Tanpakushitsu, Kakusan and Koso, 29 (2), 127 (1984).

[3] = Acute toxicity, oral administration to mice; assay type: in vivo, mouse (ddY; settings: mouse, in vivo, ddY male mice, 7 week old
From the text: (§1) Acute toxicity was evaluted by oral administration of the compounds to ddY male mice (7 week old).

ddY male mice = assay: Acute toxicity, oral administration to mice; assay type: in vivo, mouse (ddY; settings: 7 week old, result in words
From the text: as §1

[4] = test system: cycloheximide (CXM)-induced amnesia in mice; assay: Mouse step-down test (cycloheximide-induced amnesia); assay type: in vivo, mouse (ddY, male, 5 to 6 week old); settings: conclusion for the mouse step-down test
Method: The test was carried out in accordance with the method described by Nabeshima et al.: Psychopharmacology, (1986) 89, 334-337. That is, a wooden platform (4×4×4 cm) was placed in the center on a floor of a stainless steel grid (30×30 cm), and the whole apparatus was surrounded with clear acrylic resin plates. In acquisition test, a mouse (ddY, male, 5 to 6 week old) was placed on the platform, and electric stimulus was applied for 20 seconds immediately after the mouse stepped down on the grid. Then the mouse was taken out of the apparatus and cycloheximide hydrochloride (30 mg/kg) was administered subcutaneously in order to induce amnesia. In the retention test, the mouse was again placed on the platform, and the time before the mouse stepped down on the grid was measured as the step-down latency. N-(4'-chlorobenzenesulfonyl)-2-pyrrolidone and aniracetam were individually suspended in 0.3% Tween 80 and administered orally at 20 minutes before acquisition test.

SMILES | remission of scopolamine induced amnesia [1] | Residual Activity [2] | LD50 [3] | safety (ddY male mice) | anti-amnestic effect compared with aniracetam ([1]; conclusion for the rat delayed-matching test) | anti-amnestic effect compared with aniracetam [4]
COc1ccc(C(=O)N2CCCC2=O)cc1 [Aniracetam, aniracetam, reference compound] | did not remitted at all scopolamine induced amnesia | 89.5 |  |  |  | 
Cc1ccc(S(=O)(=O)N2CCCC2=O)cc1 [Synthetic Example 1,2, N-(4'-toluenesulfonyl)-2-pyrrolidone] |  | 47.4 |  |  |  | 
O=C1CCCN1S(=O)(=O)c1ccc(Cl)cc1 [Synthetic Example 3,4, N-(4'-chlorobenzenesulfonyl)-2-pyrrolidone] | showed remission of scopolamine induced amnesia at several dosages and delay times | 51.3 | ≥ 2000 mg/kg | High level of safety | exhibited an anti-amnestic effect and was more effective than aniracetam | exhibited an anti-amnestic effect and was more effective than aniracetam
O=C1CCCN1S(=O)(=O)c1ccccc1 [Synthetic Example 5,6, N-benzenesulfonyl-2-pyrrolidone] |  | 51.3 |  |  |  | 
